In patent US20060198836A1, “Method of treating hit patients with argatroban” (Smithkline Beecham Corporation, priority 2003, published 2006):
Read-outs that look alike come from different tables or passages of the source.

Experiments:
Assay type in all cases: in vivo, human
[1] = system: patient with HIT with thrombosis
From the text: A person experienced pregnancy-induced hypertension and sudden weight gain during the third trimester of pregnancy. Premature labor led to the delivery of twins at 31 weeks gestation. After delivery, the patient remained hypertensive. On post-partum day 7, they awoke with chest pain and shortness of breath. They were lethargic with a blood pressure of 190/96 mm Hg and heart rate 135 beats per minute.
On postpartum day 10, the patient was transferred to another hospital for left hemiparesis. A non-hemorrhagic right cerebral infarction was confirmed by computed tomography. During days 4 to 7 of heparin therapy, platelet counts fluctuated between 163×10^9/L and 99×10^9/L with no clear downward trend. A platelet count was not obtained on day 8. However, on day 9 of heparin therapy, the patient's right leg became ischemic and their platelet count decreased to 34×10^9/L. HIT was suspected and heparin was immediately discontinued. The patient was taken to the operating room and Fogerty balloon thrombectomy of the right superficial and profunda arteries removed a typical red, fleshy acute thrombus. The clinical diagnosis of HIT with thrombosis was confirmed by the detection of heparin/PF4 antibodies in the patient's day 9 serum (but not in their serum from day 3) using an in-vitro functional test, the serotonin release assay (SRA).
An alternative anticoagulant was needed for further treatment of their pulmonary embolism and to prevent further thrombosis of the right femoral artery. The direct thrombin inhibitor Argatroban was initiated at 2 mcg/kg/min and titrated to achieve an activated partial thromboplastin time (aPTT) of 1.5 to 3.0 times the patient's baseline aPTT value.
After 6 days of Argatroban monotherapy and recovery of the platelet count to >100×10^9/L, warfarin was initiated concomitantly. Warfarin was started at the expected daily dose of 5 mg. On the 4th day of concomitant therapy, Argatroban infusion was held for 4 hours (to eliminate the effects of Argatroban on the INR) and the INR was rechecked to assure a therapeutic INR on warfarin alone. The INR was 2.1, which is considered therapeutic for the underlying medical condition, so the Argatroban was discontinued.

[2] = system: patient with HIT with thrombosis; assay: Example 3 patient case: Argatroban with transition to warfarin, avoiding warfarin-induced skin necrosis and venous limb gangrene
From the text: The following patient case is an example of an appropriate transition to warfarin, because Argatroban therapy is continued for at least 5 days and until the patient's platelet count has recovered to >100×10^9/L. In addition, concomitant therapy with Argatroban and warfarin overlaps for at least 4-5 days.
A person presented to the hospital with an acute myocardial infarction, for which they received tissue plasminogen activator and heparin. Their platelet count was 190×10^9/L on admission. They underwent coronary artery bypass grafting several days later, and heparin was continued throughout the peri-operative period. Postoperatively, the patient experienced atrial fibrillation, and warfarin was initiated. Four days postoperatively, they developed pain and discoloration of the left breast and right leg. The platelet count was 60×10^9/L and the INR was 6.1. Unfortunately, the breast and leg lesions progressed rapidly and the patient ultimately required a mastectomy and below the knee amputation. Five weeks later, they were readmitted with upper extremity swelling. The platelet count was 126×10^9/L on readmission. Ultrasound confirmed axillary/subclavian and femoral venous thromboses, for which heparin therapy was re-initiated. The platelet count fell from 126×10^9/L to 26×10^9/L after 3 days of intravenous heparin, and the diagnosis of HIT with thrombosis was made. The patient's initial breast and leg lesions are examples of warfarin-induced skin necrosis and venous limb gangrene, respectively, which are possible clinical manifestations of HIT. The patient was started on Argatroban 2 mcg/kg/min and the dose was titrated to maintain aPTT values between 1.5 and 3 times their baseline aPTT. […] Argatroban was continued for 11 days. On day 6 of Argatroban therapy, warfarin was initiated at the estimated daily dose of 5 mg. At that time, the platelet count was 150×10^9/L. Concomitant therapy with Argatroban and warfarin was continued for […] in accordance with the recommended overlap of 4 to 5 days. On the 5th day of concomitant therapy, the Argatroban was held for 6 hours and the INR value reflecting warfarin therapy alone was checked. The INR was 2.9 and the Argatroban infusion was subsequently discontinued. • See e.g.: • Warkentin T E, Elavathil L J, Hayward C P M, et al. The pathogenesis of venous limb gangrene associated with heparin-induced thrombocytopenia. Ann Intern Med. 1997; 127:804-812. • Smythe M A, Warkentin T E, Stephens J L, et al. Venous limb gangrene during overlapping therapy with warfarin and a direct thrombin inhibitor for immune heparin-induced thrombocytopenia. Am J Hematol 2002; 71:50-52. • Srinivasan A F, Rice L, Bartholomew J R, et al. Warfarin-induced skin necrosis and venous limb gangrene in the setting of heparin-induced thrombocytopenia. […]

[3] = system: patients with HIT; assay: Clinical trial of 304 patients with HIT with or without thrombosis who received argatroban; outcome by platelet count on day of argatroban cessation
From the text: In a clinical trial of 304 patients with HIT with or without thrombosis who received argatroban, 165 patients with active HIT had platelet count data available for the day of argatroban cessation. […] Therefore, we recommend these approaches for refining the existing method of therapy in patients with HIT receiving Argatroban.

[4] = system: patient with HIT with thrombosis (HITT); assay: Example 1 patient case: Argatroban monotherapy in HIT with thrombosis, serial platelet counts
Experimental: The patient is a person with a history of hypertension and hyperlipidemia who presented to the emergency department (ED) complaining of chest pain. […] The patient was admitted to the Coronary Care Unit and was treated with aspirin, intravenous nitroglycerin, metoprolol, and intravenous heparin. The platelet count on admission was 212×10^9/L. Serial cardiac enzymes and troponin concentrations were negative for a myocardial infarction. […] Coronary artery bypass grafting was performed 2 days later with an uneventful postoperative course. They were discharged from the hospital 7 days after the surgery in good condition and their platelet count was 136×10^9/L. One week later, the patient returned to the ED complaining of the acute onset of a cold and painful swollen left leg. Their medications included aspirin 325 mg daily, metoprolol 75 mg twice daily, NitroDur 20 mg daily and atorvastatin 20 mg daily. The physical examination was normal with the exception of mild hypertension and a cold, swollen left leg with blue discoloration from the knee down. In addition, the left popliteal pulse was faint and the left ankle pulse was non-palpable. […] Intravenous heparin was started and the patient was sent to the operating room for emergency surgery. A femoro-popliteal bypass was performed with a graft and there was an initial return of arterial blood flow to the lower leg. However, before the incision was closed, the graft re-occluded. The graft was opened and explored with an embolectomy catheter. A large amount of whitish granular material was found and subsequently removed from the distal end of the graft. Pulses returned to the lower leg and the incision was closed. By the time the closure was complete, the graft had again re-occluded. The finding of a platelet-rich “white clot” during this surgery along with thrombocytopenia alerted physicians to suspect HIT with thrombosis (HITT). Heparin was immediately discontinued and the DTI Argatroban was initiated (at 2 mcg/kg/min) that evening (day 1 of Argatroban). On the following day, the patient's left lower leg remained cold, blue and pulseless. They were transferred to another hospital where an amputation was performed. Argatroban was continued for 10 days. The platelet count began improving with the following serial platelet counts: 62×10^9/L on day 4, 78×10^9/L on day 6, 110×10^9/L on day 8 and 180×10^9/L on day 10. The patient was measured for a prosthetic leg and they underwent intense physical therapy for 6 months.

heparin
platelet count ([1]; human, in vivo): 3.4e+10 L⁻¹
platelet count ([2]; human, in vivo, iv): 2.6e+10 L⁻¹

CC1CNc2c(cccc2S(=O)(=O)N[C@@H](CCCNC(=N)N)C(=O)N2CC[C@@H](C)C[C@@H]2C(=O)O)C1 (stereo partly shown) [Argatroban]
patients who experienced the composite endpoint of either death, amputation or new thrombosis ([3]; 41 patients with platelet count <100×10^9/L on the day argatroban therapy was discontinued): 61%
patients who experienced the composite endpoint of either death, amputation or new thrombosis ([3]; 124 patients with platelet count >100×10^9/L on the day argatroban therapy was discontinued): 31.5%
recovery of the platelet count ([1]; after 6 days of Argatroban monotherapy): > 1e+11 L⁻¹
platelet count ([1]; hospital day 10, day 2 of Argatroban therapy, 34 × 10^9/L prior to initiation): 5.5e+10 L⁻¹
platelet count ([1]; hospital day 13, day 5 of Argatroban therapy): 1.1e+11 L⁻¹
platelet count ([1]; hospital day 14, day 6 of Argatroban therapy): 1.6e+11 L⁻¹
platelet count ([1]; hospital day 16, day 8 of Argatroban therapy (warfarin concomitant)): 1.49e+11 L⁻¹
platelet count ([1]; hospital day 18, day 10 of Argatroban therapy (warfarin concomitant)): 2.1e+11 L⁻¹
platelet count ([1]; hospital day 20, day 12 of Argatroban therapy): 2.8e+11 L⁻¹
platelet count ([4]; day 4 of Argatroban, initiated at 2 mcg/kg/min, 41×10^9/L before): 6.2e+10 L⁻¹
platelet count ([4]; day 6 of Argatroban): 7.8e+10 L⁻¹
platelet count ([4]; day 8 of Argatroban): 1.1e+11 L⁻¹
platelet count ([4]; day 10 of Argatroban): 1.8e+11 L⁻¹
platelet count ([2]; day 6 of Argatroban therapy, when warfarin was initiated, 26×10^9/L before Argatroban): 1.5e+11 L⁻¹

CC(=O)CC(c1ccccc1)c1c(O)c2ccccc2oc1=O (stereo not shown) [warfarin]
INR on warfarin alone ([1]; warfarin 5 mg daily, 4th day of concomitant therapy, Argatroban infusion held for 4 hours): 2.1
INR ([2]; four days postoperatively, warfarin initiated during heparin exposure, onset of skin necrosis and venous limb gangrene, platelet count 60×10^9/L): 6.1
INR value reflecting warfarin therapy alone ([2]; warfarin 5 mg daily, 5th day of concomitant therapy, Argatroban held for 6 hours): 2.9
